Here are results for 30 compounds from patent US10370333B2 (Sanford Burnham Prebys Medical Discovery Institute, priority 2012, dated 2019).

The test addresses TNAP (Homo sapiens (Human), UniProt P05186). As to the kind of experiment: TNAP (PPi) inhibition assay, pyrophosphate as substrate. Type of test: biochemical. The procedure:
Expression plasmids containing a secreted epitope-tagged TNAP were transfected into COS-1 cells for transient expression. The medium was replaced with Opti-MEM 24 h later and serum-free media containing secreted proteins was collected 60 hours after electroporation. The medium was dialyzed against TBS containing 1 mM MgCl2 and […] (to remove phosphate) and filtered through a […] cellulose acetate filter.
To determine the inhibition selectivity for inhibitor candidates, human TNAP, PLAP or IAP were added to microtiter plates followed by addition of the substrate pNPP (0.5 mM) and activity was measured in 1 M DEA-HCl buffer, pH 9.8 or in 1 M Tris-HCl buffer, pH 7.5, containing 1 mM MgCl2 and 20 μM ZnCl2, in the presence of potential inhibitors (0-30 μM). TNAP, PLAP and IAP activities were adjusted to an approximate λA405 nm, equivalent to 1, measured after 30 min. Residual AP activity in the presence of inhibitors was expressed as percentage of the control activity. To investigate the mechanism of inhibition, double reciprocal plots of enzyme activity (expressed as mA405 nm min−1) vs. substrate concentration were constructed, in the presence of various concentrations of added inhibitors (0-30 μM). The y-axis intercepts of the 1/v vs. 1/[S] plots, were then plotted vs. [I] to graphically extract Ki values as the x-intercept in this plot. […] Inhibitors were further tested and sorted based on their kinetic properties at pH 7.4 using PPi, the relevant natural substrate of TNAP. […] Amounts of released phosphate were measured using the Biomol Green Reagent (Biomol Research Laboratories, Inc., Plymouth Meeting, Pa.).

Regarding `COc1ccc(Br)cc1S(=O)(=O)Nc1cncc(-c2ccccc2)c1` [Example III-26, 5-Bromo-2-methoxy-N-(5-phenyl-pyridin-3-yl)-benzenesulfonamide], the IC50 (in general, the point on the concentration scale where inhibition reaches its midpoint) is < 100 nM.

As to `COc1ccc(Cl)cc1S(=O)(=O)Nc1cncc(-c2ccccc2)c1` [Example III-27, 5-Chloro-2-methoxy-N-(5-phenyl-pyridin-3-yl)-benzenesulfonamide], the IC50 is < 100 nM.

Consider `COC(=O)c1ccc(-c2cncc(NS(=O)(=O)c3cc(OC)ccc3OC)c2)cc1` [Example III-28, 4-[5-(2,5-Dimethoxy-benzenesulfonylamino)-pyridin-3-yl]-benzoic Acid methyl ester], for which the IC50 is < 100 nM.

For `COC(=O)c1ccc(-c2cncc(NS(=O)(=O)c3cc(Br)ccc3OC)c2)cc1` [Example III-29, 4-[5-(5-Bromo-2-methoxy-benzenesulfonylamino)-pyridin-3-yl]-benzoic Acid Methyl Ester], the IC50 was < 100 nM.

As for `COC(=O)c1ccc(-c2cncc(NS(=O)(=O)c3cc(Cl)ccc3OC)c2)cc1` [Example III-30, 4-[5-(5-Chloro-2-methoxy-benzenesulfonylamino)-pyridin-3-yl]-benzoic Acid Methyl Ester], the IC50 is < 100 nM.

With `COc1ccc(OC)c(S(=O)(=O)Nc2cncc(-c3ccc(C#N)cc3)c2)c1` [Example III-31, N-(5-(4-Cyanophenyl)pyridin-3-yl)-2,5-dimethoxybenzenesulfonamide], the IC50 is < 100 nM.

Regarding `COc1ccc(Br)cc1S(=O)(=O)Nc1cncc(-c2ccc(C#N)cc2)c1` [Example III-32, 5-Bromo-N-(5-(4-cyanophenyl)pyridin-3-yl)-2-methoxybenzenesulfonamide], the IC50 was < 100 nM.

Consider `COc1ccc(Cl)cc1S(=O)(=O)Nc1cncc(-c2ccc(C#N)cc2)c1` [Example III-33, 5-Chloro-N-(5-(4-cyanophenyl)pyridin-3-yl)-2-methoxybenzenesulfonamide], for which the IC50 was < 100 nM.

In turn, `COc1ccc(OC)c(S(=O)(=O)Nc2cncc(-c3ccccc3OC)c2)c1` [Example III-34, 2,5-Dimethoxy-N-[5-(2-methoxy-phenyl)-pyridin-3-yl]-benzenesulfonamide] showed an IC50 of 100 to 1000 nM.

For the compound `COc1ccccc1-c1cncc(NS(=O)(=O)c2cc(Br)ccc2OC)c1` [Example III-35, 5-Bromo-2-methoxy-N-[5-(2-methoxy-phenyl)-pyridin-3-yl]-benzenesulfonamide], the IC50 was < 100 nM.

`COc1ccccc1-c1cncc(NS(=O)(=O)c2cc(Cl)ccc2OC)c1` [Example III-36, 5-Chloro-2-methoxy-N-[5-(2-methoxy-phenyl)-pyridin-3-yl]-benzenesulfonamide]: the IC50 was < 100 nM.

Take `COc1ccc(OC)c(S(=O)(=O)Nc2cncc(-c3ccccc3C)c2)c1` [Example III-37, 2,5-Dimethoxy-N-(5-(o-tolyl)pyridin-3-yl)benzenesulfonamide]: the IC50 was 100 to 1000 nM.

Compound `COc1ccc(Br)cc1S(=O)(=O)Nc1cncc(-c2ccccc2C)c1` [Example III-38, 5-Bromo-2-methoxy-N-(5-(o-tolyl)pyridin-3-yl)benzenesulfonamide] gave an IC50 of 100 to 1000 nM.

With `COc1ccc(OC)c(S(=O)(=O)Nc2cncc(-c3ccccc3Cl)c2)c1` [Example III-40, N-[5-(2-Chloro-phenyl)-pyridin-3-yl]-2,5-dimethoxy-benzenesulfonamide], the IC50 is < 100 nM.

Regarding `COc1ccc(Br)cc1S(=O)(=O)Nc1cncc(-c2ccccc2Cl)c1` [Example III-41, 5-Bromo-N-[5-(2-chloro-phenyl)-pyridin-3-yl]-2-methoxy-benzenesulfonamide], the IC50 is < 100 nM.

Take `COc1ccc(Cl)cc1S(=O)(=O)Nc1cncc(-c2ccccc2Cl)c1` [Example III-42, 5-Chloro-N-[5-(2-chloro-phenyl)-pyridin-3-yl]-2-methoxy-benzenesulfonamide]: the IC50 is < 100 nM.

`COc1ccc(OC)c(S(=O)(=O)Nc2cncc(-c3ccccc3C(F)(F)F)c2)c1` [Example III-43, 2,5-Dimethoxy-N-[5-(2-trifluoromethyl-phenyl)-pyridin-3-yl]-benzenesulfonamide] showed an IC50 of 100 to 1000 nM.

As to `COc1ccc(Br)cc1S(=O)(=O)Nc1cncc(-c2ccccc2C(F)(F)F)c1` [Example III-44, 5-Bromo-2-methoxy-N-[5-(2-trifluoromethyl-phenyl)-pyridin-3-yl]-benzenesulfonamide], the IC50 is 100 to 1000 nM.

On to `COc1cccc(-c2cncc(NS(=O)(=O)c3cc(OC)ccc3OC)c2)c1` [Example III-46, 2,5-Dimethoxy-N-[5-(3-methoxy-phenyl)-pyridin-3-yl]-benzenesulfonamide], for which the IC50 was < 100 nM.

`COc1cccc(-c2cncc(NS(=O)(=O)c3cc(Br)ccc3OC)c2)c1` [Example III-47, 5-Bromo-2-methoxy-N-[5-(3-methoxy-phenyl)-pyridin-3-yl]-benzenesulfonamide]: the IC50 was < 100 nM.

For the compound `COc1cccc(-c2cncc(NS(=O)(=O)c3cc(Cl)ccc3OC)c2)c1` [Example III-48, 5-Chloro-2-methoxy-N-[5-(3-methoxy-phenyl)-pyridin-3-yl]-benzenesulfonamide], the IC50 was < 100 nM.

`COc1ccc(OC)c(S(=O)(=O)Nc2cncc(-c3cccc(C)c3)c2)c1` [Example III-49, 2,5-Dimethoxy-N-(5-m-tolyl-pyridin-3-yl)-benzenesulfonamide] came in with an IC50 of 100 to 1000 nM.

The compound `COc1ccc(Br)cc1S(=O)(=O)Nc1cncc(-c2cccc(C)c2)c1` [Example III-50, 5-Bromo-2-methoxy-N-(5-m-tolyl-pyridin-3-yl)-benzenesulfonamide] gave an IC50 of 100 to 1000 nM.

For the compound `COc1ccc(OC)c(S(=O)(=O)Nc2cncc(-c3cccc(Cl)c3)c2)c1` [Example III-52, N-[5-(3-Chloro-phenyl)-pyridin-3-yl]-2,5-dimethoxy-benzenesulfonamide], the IC50 was in the range of 100 to 1000 nM.

On to `COc1ccc(Br)cc1S(=O)(=O)Nc1cncc(-c2cccc(Cl)c2)c1` [Example III-53, 5-Bromo-N-[5-(3-chloro-phenyl)-pyridin-3-yl]-2-methoxy-benzenesulfonamide], for which the IC50 fell in the range of 100 to 1000 nM.

Regarding `COc1ccc(Cl)cc1S(=O)(=O)Nc1cncc(-c2cccc(Cl)c2)c1` [Example III-54, 5-Chloro-N-[5-(3-chloro-phenyl)-pyridin-3-yl]-2-methoxy-benzenesulfonamide], the IC50 lay in the range of 100 to 1000 nM.

Take `COc1ccc(-c2cncc(NS(=O)(=O)c3cc(OC)ccc3OC)c2)c(OC)c1` [Example III-55, N-(5-(2,4-Dimethoxyphenyl)pyridin-3-yl)-2,5-dimethoxybenzenesulfonamide]: the IC50 is < 100 nM.

Turning to `COc1ccc(-c2cncc(NS(=O)(=O)c3cc(Br)ccc3OC)c2)c(OC)c1` [Example III-56, 5-Bromo-N-(5-(2,4-dimethoxyphenyl)pyridin-3-yl)-2-methoxybenzenesulfonamide], the IC50 is < 100 nM.

As for `COc1ccc(-c2cncc(NS(=O)(=O)c3cc(Cl)ccc3OC)c2)c(OC)c1` [Example III-57, 5-Chloro-N-(5-(2,4-dimethoxyphenyl)pyridin-3-yl)-2-methoxybenzenesulfonamide], the IC50 is < 100 nM.

Consider `COc1ccc(OC)c(S(=O)(=O)Nc2cncc(-c3ccccn3)c2)c1` [Example III-58, N-([2,3′-Bipyridin]-5′-yl)-2,5-dimethoxybenzenesulfonamide], for which the IC50 is < 100 nM.
